What was measured:
JAK2 = JAK2 (Homo sapiens (Human), UniProt O60674); experiment: Jak biochemical HTRF assay, JAK2; conditions: recombinant purified GST-tagged catalytic domain, HTRF format
Description: (§1) Jak Biochemical HTRF Assay Protocol
(§2) Subsequent reagent additions employed an Agilent Bravo.

JAK1 = JAK1 (Homo sapiens (Human), UniProt P23458); experiment: Jak biochemical HTRF assay, JAK1; conditions: recombinant purified GST-tagged catalytic domain; HTRF format; [ATP] 31.8 μM
Description: as §1, §2

JAK2, sequence (O60674 849-1124): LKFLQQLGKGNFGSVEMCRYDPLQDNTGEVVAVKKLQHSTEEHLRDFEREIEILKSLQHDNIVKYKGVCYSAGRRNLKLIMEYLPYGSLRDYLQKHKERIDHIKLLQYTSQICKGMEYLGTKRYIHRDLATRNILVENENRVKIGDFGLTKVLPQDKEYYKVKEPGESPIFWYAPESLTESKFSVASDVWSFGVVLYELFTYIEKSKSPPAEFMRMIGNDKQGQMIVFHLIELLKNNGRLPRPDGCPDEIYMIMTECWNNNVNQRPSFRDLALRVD
JAK1, sequence (P23458 875-1153): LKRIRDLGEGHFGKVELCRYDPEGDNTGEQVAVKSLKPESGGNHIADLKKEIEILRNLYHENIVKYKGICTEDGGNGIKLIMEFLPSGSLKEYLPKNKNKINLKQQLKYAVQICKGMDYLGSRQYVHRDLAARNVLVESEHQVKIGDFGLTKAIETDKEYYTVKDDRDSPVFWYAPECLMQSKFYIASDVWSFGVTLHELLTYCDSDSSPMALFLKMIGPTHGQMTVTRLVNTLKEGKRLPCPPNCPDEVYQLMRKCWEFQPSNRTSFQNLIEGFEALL

IC50 (JAK2; [ATP] 8.5 μM) [nM] | IC50 (JAK1) [nM] | IC50 (JAK2; [ATP] […]) [nM] | Structure (SMILES)
22 | 2 | – | N#C[C@@H]1CCN(Cc2ncco2)C[C@H]1n1cc(C(N)=O)c(Nc2ccc(F)cc2)n1 (racemic) [Example 6-8, 1-[(3S,4R and 3R,4S)-4-cyano-1-(1,3-oxazol-2-ylmethyl)piperidin-3-yl]-3-[(4-fluorophenyl)amino]-1H-pyrazole-4-carboxamide]
> 1500 | 350 | – | N#C[C@@H]1CN(C(=O)OCCCc2ccccc2)CC[C@@H]1n1cc(C(N)=O)c(Nc2ccc(F)cc2)n1 (racemic) [Example 5-55, 3-phenylpropyl (3R,4S and 3S,4R)-4-{4-carbamoyl-3-[(4-fluorophenyl)amino]-1H-pyrazol-1-yl}-3-cyanopiperidine-1-carboxylate]
14 | 1 | – | N#C[C@@H]1CCN(C(=O)OCC(F)(F)CO)CC1n1cc(C(N)=O)c(Nc2ccc(F)cc2)n1 (mixture of isomers) [Example 5-74, 2,2-difluoro-3-hydroxypropyl (3S,4R and 3R,4S)-3-{4-carbamoyl-3-[(4-fluorophenyl)amino]-1H-pyrazol-1-yl}-4-cyanopiperidine-1-carboxylate]
468 | 19 | – | CC(OC(=O)N1CC[C@@H](n2cc(C(N)=O)c(Nc3ccc(F)cc3)n2)[C@H](C#N)C1)C1CC1 (mixture of isomers) [Example 5-35, 1-cyclopropylethyl (3R,4R and 3S,4S)-4-{4-carbamoyl-3-[(4-fluorophenyl)amino]-1H-pyrazol-1-yl}-3-cyanopiperidine-1-carboxylate]
187 | 6 | – | CCOC(=O)COC(=O)N1CC[C@@H](C#N)C(n2cc(C(N)=O)c(Nc3ccc(F)cc3)n2)C1 (mixture of isomers) [Example 5-84, 2-ethoxy-2-oxoethyl (3S,4R and 3R,4S)-3-{4-carbamoyl-3-[(4-fluorophenyl)amino]-1H-pyrazol-1-yl}-4-cyanopiperidine-1-carboxylate]
185 | 12 | – | N#C[C@@H]1CN(C(=O)OC2COC2)CC[C@H]1n1cc(C(N)=O)c(Nc2ccc(F)cc2)n1 (racemic) [Example 5-5, oxetan-3-yl (3R,4R and 3S,4S)-4-{4-carbamoyl-3-[(4-fluorophenyl)amino]-1H-pyrazol-1-yl}-3-cyanopiperidine-1-carboxylate]
14 | 2 | – | Cn1ccc(CN2CC[C@@H](C#N)[C@H](n3cc(C(N)=O)c(Nc4ccc(F)cc4)n3)C2)n1 (racemic) [Example 6-5, 1-{(3S,4R and 3R,4S)-4-cyano-1-[(1-methyl-1H-pyrazol-3-yl)methyl]piperidin-3-yl}-3-[(4-fluorophenyl)amino]-1H-pyrazole-4-carboxamide]
63 | 6 | – | N#C[C@@H]1CCN(CC2CCOC2)C[C@H]1n1cc(C(N)=O)c(Nc2ccc(F)cc2)n1 (mixture of isomers) [Example 6-21, 1-[(3S,4R and 3R,4S)-4-cyano-1-(tetrahydrofuran-3-ylmethyl)piperidin-3-yl]-3-[(4-fluorophenyl)amino]-1H-pyrdzole-4-carboxamide]
533 | 25 | – | CC(C)(O)C1CC(CN2CC[C@@H](C#N)[C@H](n3cc(C(N)=O)c(Nc4ccc(F)cc4)n3)C2)C1 (mixture of isomers) [Example 6-11, 1-[(3S,4R and 3R,4S)-4-cyano-1-{[3-(1-hydroxy-1-methylethyl)cyclobutyl]methyl}piperidin-3-yl]-3-[(4-fluorophenyl)amino]-1H-pyrazole-4-carboxamide]
13 | 2 | – | N#C[C@@H]1CCN(Cc2ccon2)C[C@H]1n1cc(C(N)=O)c(Nc2ccc(F)cc2)n1 (racemic) [Example 6-3, 1-[(3S,4R and 3R,4S)-4-cyano-1-(isoxazol-3-ylmethyl)piperidin-3-yl]-3-[(4-fluorophenyl)amino]-1H-pyrazole-4-carboxamide]
20 | 2 | – | Cn1nccc1CN1CC[C@@H](C#N)[C@H](n2cc(C(N)=O)c(Nc3ccc(F)cc3)n2)C1 (racemic) [Example 6-13, 1-{(3S,4R and 3R,4S)-4-cyano-1-[(1-methyl-1H-pyrazol-5-yl)methyl]piperidin-3-yl}-3-[(4-fluorophenyl)amino]-1H-pyrazole-4-carboxamide]
52 | 7 | – | N#C[C@H]1CCOC[C@@H]1n1cc(C(N)=O)c(Nc2ccc(OC(F)(F)F)cc2)n1 (single isomer, unassigned) [Example 9-20, 1-[(3R,4S or 3S,4R)-4-cyanotetrahydro-2H-pyran-3-yl]-3-{[4-(trifluoromethoxy)phenyl]amino}-1H-pyrazole-4-carboxamide]
77 | 6 | – | N#C[C@@H]1CCN(Cc2cccnn2)CC1n1cc(C(N)=O)c(Nc2ccc(F)cc2)n1 (mixture of isomers) [Example 6-1, 1-[(3S,4R and 3R,4S)-4-Cyano-1-(pyridazin-3-ylmethyl)piperidin-3-yl]-3-[(4-fluorophenyl)amino]-1H-pyrazole-4-carboxamide]
79 | 5 | – | N#C[C@@H]1CN(Cc2cccnc2F)CC[C@H]1n1cc(C(N)=O)c(Nc2ccc(F)cc2)n1 (racemic) [Example 6-35, 1-{(3R,4R and 3S,4S)-3-cyano-1-[(2-fluoropyridin-3-yl)methyl]piperidin-4-yl}-3-[(4-fluorophenyl)amino]-1H-pyrazole-4-carboxamide]
1010 | 44 | – | N#C[C@@H]1CN(C(=O)OCCCc2ccccc2)CC[C@H]1n1cc(C(N)=O)c(Nc2ccc(F)cc2)n1 (racemic) [Example 5-3, 3-phenylpropyl (3R,4R and 3S,4S)-4-{4-carbamoyl-3-[(4-fluorophenyl)amino]-1H-pyrazol-1-yl}-3-cyanopiperidine-1-carboxylate]
135 | 8 | – | CC(OC(=O)N1CC[C@@H](C#N)C(n2cc(C(N)=O)c(Nc3ccc(F)cc3)n2)C1)C(F)(F)F (mixture of isomers) [Example 5-70, 2,2,2-trifluoro-1-methylethyl (3S,4R and 3R,4S)-3-{4-carbamoyl-3-[(4-fluorophenyl)amino]-1H-pyrazol-1-yl}-4-cyanopiperidine-1-carboxylate]
– | 5 | 25 | C[C@@H]1C[C@H](C#N)[C@@H](n2cc(C(N)=O)c(Nc3ccnc(F)c3)n2)CO1 (mixture of isomers) [Example 10-1, 1-((3R,4S,6R and 3S,4R,6S)-4-Cyano-6-methyltetrahydro-2H-pyran-3-yl)-3-((2-fluoropyridin-4-yl)amino)-1H-pyrazole-4-carboxamide]
– | 84 | 292 | C[C@@]1(C#N)CS(=O)(=O)C[C@@H]1n1cc(C(N)=O)c(Nc2ccc(F)cc2)n1 (single isomer, unassigned) [Example 14-2, 1-((3R,4R or 3S,4S)-4-Cyano-4-methyl-1,1-dioxidotetrahydrothiophen-3-yl)-3-((4-fluorophenyl)amino)-1H-pyrazole-4-carboxamide]
7 | 0.9 | – | N#C[C@@H]1CCOC[C@H]1n1cc(C(N)=O)c(Nc2cncc(F)c2)n1 (single isomer, unassigned) [Example 9-31, 1-[(3S,4R or 3R,4S)-4-cyanotetrahydro-2H-pyran-3-yl]-3-[(5-fluoropyridin-3-yl)amino]-1H-pyrazole-4-carboxamide]
– | 5 | 66 | N#C[C@@H]1CN(CC2CCC2)CC[C@H]1n1cc(C(N)=O)c(Nc2ccc(F)cc2)n1 [Example 6-40, 1-[(3R,4R)-3-cyano-1-(cyclobutylmethyl)piperidin-4-yl]-3-[(4-fluorophenyl)amino]-1H-pyrazole-4-carboxamide]
53 | 2 | – | N#C[C@@H]1CCN(C(=O)OCc2ccccc2)CC1n1cc(C(N)=O)c(Nc2ccc(F)cc2)n1 (mixture of isomers) [Example 5-82, benzyl (3S,4R and 3R,4S)-3-{4-carbamoyl-3-[(4-fluorophenyl)amino]-1H-pyrazol-1-yl}-4-cyanopiperidine-1-carboxylate]
– | 29 | 206 | C[C@H]1OCC[C@@H](C#N)[C@@H]1n1cc(C(N)=O)c(Nc2ccnc(F)c2)n1 (mixture of isomers) [Example 10-2, 1-((2S,3R,4S and 2R,3S,4R)-4-cyano-2-methyltetrahydro-2H-pyran-3-yl)-3-((2-fluoropyridin-4-yl)amino)-1H-pyrazole-4-carboxamide]
1340 | 121 | – | N#C[C@@H]1CN(C(=O)OC(CF)CF)CC[C@@H]1n1cc(C(N)=O)c(Nc2ccc(F)cc2)n1 (racemic) [Example 5-47, 2-fluoro-1-(fluoromethyl)ethyl (3R,4S and 3S,4R)-4-{4-carbamoyl-3-[(4-fluorophenyl)amino]-1H-pyrazol-1-yl}-3-cyanopiperidine-1-carboxylate]
145 | 6 | – | CC(C)(C)COC(=O)N1CC[C@@H](C#N)C(n2cc(C(N)=O)c(Nc3ccc(F)cc3)n2)C1 (mixture of isomers) [Example 5-80, 2,2-dimethylpropyl (3S,4R and 3R,4S)-3-{4-carbamoyl-3-[(4-fluorophenyl)amino]-1H-pyrazol-1-yl}-4-cyanopiperidine-1-carboxylate]
62 | 5 | – | CCOC(=O)N1CC[C@@H](C#N)C(n2cc(C(N)=O)c(Nc3ccc(F)cc3)n2)C1 (mixture of isomers) [Example 5-76, ethyl (3S,4R and 3R,4S)-3-{4-carbamoyl-3-[(4-fluorophenyl)ainino]-1H-pyrazol-1-yl}-4-cyanopiperidine-1-carboxylate]
69 | 5 | – | CC1(COC(=O)N2CC[C@@H](C#N)C(n3cc(C(N)=O)c(Nc4ccc(F)cc4)n3)C2)CC1 (mixture of isomers) [Example 5-72, (1-methylcyclopropyl)methyl (3S,4R and 3R,4S)-3-{4-carbamoyl-3-[(4-fluorophenyl)amino]-1H-pyrazol-1-yl}-4-cyanopiperidine-1-carboxylate]
